Measured values as given in patent US20080170990A1, “Methods for Myocardial Imaging in Patients Having a History of Pulmonary Disease” (CV THERAPEUTICS, INC., priority 2006, published 2008).

Columns and labels:
[1] = tested on: patients undergoing a clinically indicated coronary catheterization; assay: Coronary blood flow velocity (CBFv) by Doppler flow wire after IV bolus, open label study (Example 1); assay type: in vivo, human; conditions: 18 μg intracoronary (IC) Ado; mean ±SD
Experimental: The purpose of this open label study was to determine the magnitude and duration of effect of Regadenoson (10-500 μg) on CBFv in humans.
Patients undergoing a clinically indicated coronary catheterization with no more than a 70% stenosis in any coronary artery and no more than a 50% stenosis of the study vessel had CBFv determined by Doppler flow wire. Study subjects were selected after measuring baseline and peak CBFv after an intracoronary (IC) injection of 18 μg of Ado. Twenty-three patients, who were identified as meeting the study criteria of having a peak to baseline CBFv ration of ≧2.5 in response to Adenosine, received a rapid (≦10 sec) peripheral IV bolus of Regadenoson; Doppler signals were stable and interpretable over the time-course of the increase in CBFv in 17 patients.

COPD patients = conditions: both, human, in vivo
Description: COPD patients were selected from two phase III randomized, triple-blind, placebo-controlled, multicenter studies (N=2,015) designed to test the strength of agreement for reversible cardiac defects between ADO and REG. There were 35 patients in the ADO group and 69 in the Regadenoson group. Age and gender were similar between ADO (68=11 yrs; 77% male) and Regadenoson group (68±11 yrs; 81% male). Of the 35 patients, 5 suffered (14%) cardiac symptoms in the ADO group vs 3/69 (4%) in the Regadenoson group (p=0.12); 14/35 (40%) in the ADO vs. 20/69 (29%) in the Regadenoson group resorted respiratory symptoms (p=0.28). Angina, occurrence of second degree AV block, acute pulmonary oedema and ronchi were higher in ADO group; nausea, GI discomfort and headache occurred more often in the Regadenoson group.

[2] = tested on: subjects undergoing stress/rest MPI; assay: Stress/rest SPECT myocardial perfusion imaging, adenosine vs Regadenoson (Example 6); assay type: in vivo, human; conditions: SPECT MPI, 17-segment model; p=n.s.
Experimental: To determine the ability of Regadenoson to produce coronary hyperemia and accurately detect CAD, 35 subjects (26 men, 9 women; 67±10 years) underwent both A and Regadenoson stress/rest MPI, with 10.0±9.1 days between studies. […] Regadenoson [400 mcg (n=18), 500 mcg (n=17)] was administered as an IV bolus immediately followed by a saline flush, and then a Tc-99m radiopharmaceutical [sestamibi (n=34), tetrofosmin (n=1)]. SPECT images were uniformly processed, intermixed with control studies (normal and fixed-only defects), and interpreted by three observers in a blinded fashion using a 17-segment model. Quantitative analysis was also performed using 4D MSPECT. In addition to three separate readings, a consensus interpretation was performed and then a direct, same-screen comparison of A and REGADENASON images undertaken to determine relative differences, using 5 regions per study.

awake rats = assay: Sympathoexcitation: heart rate, blood pressure and plasma catecholamines after i.v. bolus (Example 5); assay type: in vivo, rat; conditions: in the presence of hexamethonium 10 mg/kg, n=5
Experimental: CVT (0.31 μg/kg-50 μg/kg) was given as a rapid i.v. bolus to awake rats and heart rate (HR) and blood pressure (BP) were monitored. Regadenoson caused an increase in BP and systolic pressure (SP) at lower doses while at higher doses there was a decrease in BP and SP. […] The increase in HR was evident at the lowest dose of CVT at which there was no appreciable decrease in BP. ZM241385 (30 μg/kg, N=5), an A2A adenosine receptor antagonist, attenuated the decrease in BP (Regadenoson: 14±3%, ZM: 1±1%) and the increase in HR (CVT: 27±3%, ZM: 18±3%) caused by Regadenoson. Pretreatment with metoprolol (MET, 1 mg/kg, n=5), a beta-blocker, attenuated the increase in HR (CVT: 27±3%, MET: 15±2%), but had no effect on hypotension caused by Regadenoson. In the presence of hexamethonium (HEX, 10 mg/kg, n=5), a ganglionic blocker, the tachycardia was prevented (CVT: 27±3%, HEX: −1±2%), but BP was further reduced (CVT: −11±2%, HEX: −49±5%).

patients with cardiac symptoms (COPD patients) [%]	patients with cardiac symptoms, number (COPD patients)	patients with respiratory symptoms (COPD patients) [%]	patients with respiratory symptoms, number (COPD patients)	SMILES	peak to baseline CBFv ratio [1]	summed score following stress, visual analysis [2]	BP change caused by Regadenoson (awake rats) [%]	HR change (tachycardia) caused by Regadenoson (awake rats) [%]
14	5	40	14/35	Nc1ncnc2c1ncn2[C@@H]1O[C@H](CO)[C@@H](O)[C@H]1O [ADO, adenosine, reference compound]	3.2±0.5	133.9±1.5		
				C[N+](C)(C)CCCCCC[N+](C)(C)C [hexamethonium, reference compound]			−49±5	−1±2
